Experimental data from PubChem BioAssay AID248 (DTP/NCI, 2004).
Toxic doses and inconclusive results are not listed. No stated cut-off is given here; in the data, active means T/C of 150% or more; inactive means T/C below 125%.

System: L1210 leukemia ip in BDF1 mice, survival T/C
Experiment: NCI In Vivo Anticancer Drug Screen. Data for tumor model L1210 Leukemia (intraperitoneal) in B6D2F1 (BDF1) mice
Conditions: endpoint: mean survival time, higher = longer survival
Summary of the method: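 Survival endpoint. Drug-treated group vs vehicle group, expressed as T divided by C. Tumor passaged by transplantation.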

[1] = dose: 100.0 mg/kg/injection, schedule: Q04DX003 (ip), vehicle: saline
[2] = dose: 200.0 mg/kg/injection, schedule: Q04DX003 (ip), vehicle: saline
[3] = dose: 100.0 mg/kg/injection, schedule: Q01DX009 (ip), vehicle: Klucel (hydroxypropylcellulose) (HPC)
[4] = dose: 100.0 mg/kg/injection, schedule: Q04DX003 (ip), vehicle: Klucel (hydroxypropylcellulose) (HPC)
[5] = dose: 200.0 mg/kg/injection, schedule: Q01DX009 (ip), vehicle: Klucel (hydroxypropylcellulose) (HPC)
[6] = dose: 200.0 mg/kg/injection, schedule: Q04DX003 (ip), vehicle: Klucel (hydroxypropylcellulose) (HPC)
[7] = dose: 400.0 mg/kg/injection, schedule: Q01DX009 (ip), vehicle: Klucel (hydroxypropylcellulose) (HPC)
[8] = dose: 400.0 mg/kg/injection, schedule: Q04DX003 (ip), vehicle: Klucel (hydroxypropylcellulose) (HPC)
[9] = dose: 100.0 mg/kg/injection, schedule: Q04DX003 (ip), vehicle: saline with Tween-80
[10] = dose: 200.0 mg/kg/injection, schedule: Q04DX003 (ip), vehicle: saline with Tween-80
[11] = dose: 400.0 mg/kg/injection, schedule: Q04DX003 (ip), vehicle: saline with Tween-80
[12] = dose: 100.0 mg/kg/injection, schedule: Q01DX001 (ip), vehicle: saline
[13] = dose: 200.0 mg/kg/injection, schedule: Q01DX001 (ip), vehicle: saline

Measured: T/C

Nc1cccc2ncccc12
inactive: [1] 104 % of control | [2] 101 % of control | dose: 400.0 mg/kg/injection, schedule: Q04DX003 (ip), vehicle: saline 103 % of control

S=c1sscc1-c1ccccc1
inactive: dose: 50.0 mg/kg/injection, schedule: Q04DX003 (ip), vehicle: Klucel (hydroxypropylcellulose) (HPC) 95 % of control | [3] 108 % of control | [4] 111 % of control | [5] 112 % of control | [6] 95 % of control | [7] 110 % of control | [8] 98 % of control

COc1cc(C(=O)O)cc(OC)n1
inactive: [9] 102 % of control | [10] 96 % of control | [11] 96 % of control

N#CC1CC2c3ccccc3C1c1ccccc12 (centres undefined)
inactive: [9] 97 % of control | [10] 94 % of control | [11] 100 % of control

CCn1cc(C(=O)O)c(=O)c2ccc(-c3ccncc3)cc21
inactive: [3] 98 % of control | [4] 91 % of control | [5] 101 % of control | [6] 91 % of control | [7] 102 % of control | [8] 89 % of control

CC(C)(C)CC(C)(C)c1ccc(OCCOc2ccc(C(=O)O)cc2N)cc1
inactive: [12] 92 % of control | [13] 96 % of control

O=c1[nH]c2cc(F)ccc2o1
inactive: [3] 103 % of control | [4] 104 % of control | [5] 101 % of control | [6] 103 % of control | [7] 111 % of control | [8] 111 % of control

N=C(N)SCC(O)c1ccccc1 (centres undefined)
inactive: [3] 104 % of control | [5] 95 % of control

O=[N+]([O-])c1ccc(N/N=C2\CCCc3c2ccc2ccccc32)c([N+](=O)[O-])c1
inactive: [12] 97 % of control | [13] 92 % of control | dose: 400.0 mg/kg/injection, schedule: Q01DX001 (ip), vehicle: saline 103 % of control

COc1ccc(C)cc1NC(=O)Nc1ccccc1C(F)(F)F
inactive: [3] 89 % of control | [5] 91 % of control | [7] 100 % of control

S=C(NCc1ccccc1)[S][Sn]([c]1ccccc1)([c]1ccccc1)[c]1ccccc1
inactive: dose: 5.0 mg/kg/injection, schedule: Q01DX001 (ip), vehicle: steriod suspending solution 101 % of control | dose: 10.0 mg/kg/injection, schedule: Q01DX001 (ip), vehicle: steriod suspending solution 103 % of control | dose: 20.0 mg/kg/injection, schedule: Q01DX001 (ip), vehicle: steriod suspending solution 93 % of control | dose: 40.0 mg/kg/injection, schedule: Q01DX001 (ip), vehicle: steriod suspending solution 113 % of control | dose: 80.0 mg/kg/injection, schedule: Q01DX001 (ip), vehicle: steriod suspending solution 104 % of control

CN(C)CCSC(=O)N1c2ccccc2C(C)(C)c2ccccc21
inactive: dose: 12.5 mg/kg/injection, schedule: Q01DX009 (ip), vehicle: saline 94 % of control | dose: 25.0 mg/kg/injection, schedule: Q01DX009 (ip), vehicle: saline 100 % of control | dose: 25.0 mg/kg/injection, schedule: Q04DX003 (ip), vehicle: saline 91 % of control | dose: 50.0 mg/kg/injection, schedule: Q01DX009 (ip), vehicle: saline 111 % of control | dose: 50.0 mg/kg/injection, schedule: Q04DX003 (ip), vehicle: saline 102 % of control | [1] 96 % of control | [2] 90 % of control

Nc1ccc(NS(=O)(=O)c2ccccc2)nc1
inactive: [3] 102 % of control | [4] 106 % of control | [5] 96 % of control | [6] 100 % of control | [7] 93 % of control | [8] 105 % of control

COc1ccc(/C(=C(/CC(=O)O)C(=O)OC(C)(C)C)c2cc(OC)c(OC)c(OC)c2)cc1OC
inactive: dose: 100.0 mg/kg/injection, schedule: Q01DX001 (ip), vehicle: carboxymethylcellulose (CMC) 96 % of control | dose: 200.0 mg/kg/injection, schedule: Q01DX001 (ip), vehicle: carboxymethylcellulose (CMC) 102 % of control | dose: 400.0 mg/kg/injection, schedule: Q01DX001 (ip), vehicle: carboxymethylcellulose (CMC) 97 % of control
